In patent US8344113B2, “Diagnostic tumor markers, drug screening for tumorigenesis inhibition, and compositions and methods for treatment of cancer” (Minerva Biotechnologies Corporation, priority 2000, dated 2013):
No end group written: not given here.

Tests used:
[1] = target: T1, MGFR portion of the MUC1 receptor and its activating ligand(s) (Homo sapiens, UniProt P15941, R1131P); experiment: Colloid-based color-change drug screening assay (His-PSMGFR colloids plus T47D cell lysate); assay type: binding; details: final drug concentration approximately 100 μM
T1 construct: made in house; host or cells: chemical synthesis (synthetic peptide)
T1 sequence (P15941 with tags, fused parts or gaps R1131P): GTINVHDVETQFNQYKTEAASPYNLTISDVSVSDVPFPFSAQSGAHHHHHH
Procedure: In a typical example, 1.5 ml of commercially available gold colloid (Auro Dye by Amersham) were pelleted by centrifugation in a microfuge on high for 10 minutes. The pellet was resuspended in 100 μL of the storage buffer (sodium citrate and tween-20). 100 μL of a dimethyl formamide (DMF) solution containing thiols. Following a 3-hour incubation in the thiol solution, the colloids were pelleted and the supernatant discarded. They were then heat cycled in 100 μL of 400 μM tri-ethylene glycol-terminated thiol in DMF for 2 minutes at 55° C., 2 minutes at 37° C., 1 minute at 55° C., 2 minutes at 37° C., then room temperature for 10 minutes. Heat cycling results in the elimination of any species that are not in the lowest energy confirmation, resulting in a stable, close-packed, self-assembled monolayer. Heat cycling can be carried out with any of a wide variety of self-assembled monolayer-forming species. The colloids were then pelleted and 100 μL 100 mM NaCl phosphate buffer were added. The colloids were then diluted 1:1 with 180 μM NiSO4 in the colloid storage buffer.
Thiols used in coating colloids typically were derived from solutions containing about 40 μM nitrilo tri-acetic acid (NTA)-thiol, and other thiols such as methyl-terminated thiol (HS—(CH2)15 CH3), 40% tri-ethylene glycol-terminated thiol, HS(CH2)11[…], (formula) and 50% poly(ethynylphenyl) thiol (C16H10S).
Colloid aggregation can be sensitively detected by monitoring color change of colloid particles which are initially disperse in suspension. Aggregation results in a color change to blue. No auxiliary signaling entity is necessary. In drug screening, aggregation (or lack thereof) is observed in the presence of candidate drugs.
The following is an example of a working drug screening assay to identify anti-cancer agents. In this example, a histidine-tagged peptide derived from the portion of the MUC1 receptor that remains attached to the cell surface after receptor cleavage (His-PSMGFR) was attached to NTA-nickel-SAM-coated gold colloids. The peptide-presenting colloids were incubated with lysates/supernatants from MUC1 presenting cells that were shown herein to contain ligands that cause dimerization or multimerization of that portion of the MUC1 receptor. This ligand-induced multimerization of the MGFR portion of the receptor causes the attached colloids to be drawn close together, which causes a change in the color of the colloid solution from pink to blue. Drugs that interfere with the binding of activating ligands to the MGFR portion of the receptor cause the solution to remain pink.
Negative control wells contained colloids bound with a random sequence histidine-tagged peptide in place of the MUC1 peptide. […] The well containing colloids that presented the PSMGFR peptide plus T47D cell lysates (Well A) changed color from pink to blue, indicating the presence of a multimerizing ligand. Wells that contained a random sequence peptide (RGD) in place of the PSMGFR peptide (Well B) remained pink. Wells that contained phosphate buffer in place of cell lysate also remained pink (Wells C and D).
T47D cells were trypsinized from a T25 flask, pelleted, resuspended in phosphate buffer, and lysed by sonication to release the ligand into solution. NTA-SAM-coated colloids were bound with the His-PSMGFR peptide:
200 μl NTA-SAM-coated colloids were incubated with 20 μl 100 μM peptide in phosphate buffer for 15 minutes, pelleted to remove unbound peptide, and resuspended in phosphate buffer. […]

T47D cells [2] = experiment: Cell proliferation assay, MUC1 tumor cells treated with drug candidates; assay type: cell-based, human; details: for Selective inhibition of proliferation of MUC1-expressing tumor cells over control cells: T47D versus K293, 48 hours; for Cell growth (percent cell growth over 48 hours): T47D cells
Procedure: (§1) T47D cells, mammary carcinoma cells known to overexpress MUC1, were grown in the wells of an ELISA plate along with K293 cells, human embryonic kidney cells which will serve as the negative control. 100 μl cells in growth media were added to the wells of an ELISA plate and the cells were allowed to adhere overnight. The number of cells in each well on the plate were then counted and recorded. 1 μl of a drug candidate in DMSO was then added to each well of both the T47D cells and the K293 cells. 1 μl DMSO alone was added to control wells. Each well was repeated in triplet. The cells were allowed to grow for 48 hours, the normal doubling time for these cell lines. The number of cells in each well was again counted and recorded. The percent cell growth over this 48-hour period was calculated, and the percent cell growth for wells containing a drug candidate versus DMSO were compared. […] Cell growth in the presence of Etomoxir was […] for T47D cells and 94% for control cells (K293); Cell growth in the presence of L-alpha-methyl-DOPA was 20% for T47D cells and 110% for control cells (K293); Cell growth in the presence of Fusaric acid was 27.7% for T47D cells, and 106.7% for control cells (K293); Cell growth in the absence of any drug (but with an equivalent amount of DMSO added) was 91.3% for T47D cells, and 106.2% for control cells (K293).

K293 cells = experiment: Cell proliferation assay, negative control cells treated with drug candidates; assay type: cell-based, human
Procedure: as §1

T47D cells [3] = experiment: Modulation of the inhibitory effect of Etomoxir on cell proliferation by added PSMGFR; assay type: cell-based, human
Procedure: The following experiment was performed in triplicate. T47D cells were grown to approximately 30% confluency. […] Then, a synthetic peptide (PSMGFR) was added to the cell growth media under normal cell growth conditions.

PSMGFR peptide = target: T2, PSMGFR peptide (Homo sapiens, UniProt P15941, R1131P); experiment: Co-elution of drugs with bead-immobilized His-PSMGFR peptide (HPLC / TLC); assay type: binding; details: eluates from NTA-nickel beads analyzed by TLC
T2 construct: made in house; host or cells: chemical synthesis (synthetic peptide)
T2 sequence (P15941 with tags, fused parts or gaps R1131P): T1 sequence (P15941 with tags, fused parts or gaps R1131P)
Procedure: The His-PSMGFR peptide was attached to NTA-nickel agarose beads then separately incubated with each of the drug candidates. 100 μl beads were bound to saturation with 1 mg peptide, rinsed to remove unbound peptide, and incubated with 25 μl 2.7 mg/ml drug candidate in DMSO for one hour in 5 ml phosphate buffer. Unbound drugs were washed away with phosphate buffer, and the peptide was eluted from the beads with PBS, 250 mM imidazole. If the drug candidate bound to the peptide, it would co-elute with the peptide in the imidazole solution. Peptide-drug complexes were then separated by HPLC. HPLC elution peaks from the complex were compared to the elution peaks from the drug, injected alone, and the PSMGFR peptide alone.
In a similar experiment, eluates from the beads were analyzed by TLC (thin layer chromatography). Two drugs, calcimycin and NS1619 which could be tracked by TLC, because they fluoresced under UV light, were tested. NTA-nickel bead-immobilized peptides were incubated with the drugs as described above, rinsed and eluted from the beads, then rotoevaporated to remove the aqueous buffer. The solid was then resuspended in ethylacetate, 5% methanol and spotted on TLC plates then run in the same organic solvent. […] Calcimycin, gave a clear blue spot under 250 nm UV light and ran at a less polar position (as expected) than the peptide itself. […]

[4] = tested on: MUC1 receptor fragments (self-aggregation); experiment: Colloid color-change self-aggregation assay of MUC1-derived peptides; assay type: binding, human; details: peptide on NTA-Ni colloids
Procedure: Histidine-tagged peptides were synthesized with the sequences shown in table 1 (the various regions of MUC1). The lyophilized peptides were dissolved in DMSO to give a final concentration of 5 mM. A stock solution of each peptide was made by dissolving 4 μl 5 mM DMSO stock in 196 μl Phosphate-Buffered-Saline (PBS) for a resulting concentration of 100 μM. 20 μl of each 100 μM peptide solution was added to 100 μl colloids presenting NTA-Ni to capture the histidine tag of the peptides. The colloids were incubated with the histidine-tagged peptides at room temperature for 10 minutes to allow binding of the histidine-tags to the NTA-Ni on the surface of the colloids. 20 μl aliquots of each peptides species on colloids was then mixed with 20 μl of every other peptide species and with 60 μl of phosphate buffer pH 7.4. The color change of the colloid solutions was recorded after 15 minutes, see FIG. 2. Row A contains the His-PSIBR (primary sequence interchain binding region) peptide; Row B contains the His-TR peptide; Row C contains the His-RM2 peptide; Row D contains the His-PSMGFR peptide. Column 1 contains the His-PSIBR peptide; Column 2 contains the His-TR peptide; Column 3 contains the His-RM2 peptide; and Column 4 contains the His-PSMGFR peptide. […] During this period, the set of colloids incubated with the His-PSIBR peptide changed color from pink to blue. Only the well of Row A, Column 1, which is the cross section of PSIBR with itself, turned from pink to blue within the first 10 minutes.
The colloid sets were centrifuged to form a pellet and were resuspended in phosphate buffer. […] Since there was only one peptide species on the colloids, the binding interaction must be the PSIBR peptide binding to itself. The other sets of colloids bound to peptides were assayed for their interaction with one another by mixing 15 μl of one colloid type with 15 μl of a second colloid type and 70 μl phosphate buffer.
The peptide was attached to colloid particles presenting NTA thiols, as in other experiments described herein. […]

| Compound | Interruption of the interaction of MGFR with its ligand(s) (colloid solution stays pink) [1] | Cell growth (percent cell growth over 48 hours) (K293 cells) | Self-aggregation of colloid-immobilized peptide (color change pink to blue) [4] | further results |
| --- | --- | --- | --- | --- |
| CCOC(=O)[C@@]1(CCCCCCOc2ccc(Cl)cc2)CO1 [Etomoxir] | interrupt the interaction of MGFR with its ligand(s) | 94% |  | Selective inhibition of proliferation of MUC1-expressing tumor cells over control cells (T47D cells [2]): selectively inhibited proliferation of the MUC1-expressing tumor cells over K293 negative control cells; Cell proliferation in the presence of drug (T47D cells [3]; approx. 100 micromolar): arrested |
| CCCCc1ccc(C(=O)O)nc1 [Fusaric acid] |  | 106.7% |  | Cell growth (percent cell growth over 48 hours) (T47D cells [2]): 27.7% |
| C[C@](N)(Cc1ccc(O)c(O)c1)C(=O)O [L-alpha-methyl-DOPA] | interrupt the interaction of MGFR with its ligand(s) | 110% |  | Cell growth (percent cell growth over 48 hours) (T47D cells [2]): 20%; Selective inhibition of proliferation of MUC1-expressing tumor cells over control cells (T47D cells [2]): selectively inhibited proliferation of the MUC1-expressing tumor cells over K293 negative control cells |
| O=c1[nH]c2cc(C(F)(F)F)ccc2n1-c1cc(C(F)(F)F)ccc1O [NS1619] | interrupt the interaction of MGFR with its ligand(s) |  |  | Direct binding to PSMGFR peptide (co-elution, TLC) (PSMGFR peptide): co-eluted with the PSMGFR peptide |
| CCCC[C@@]1(C2CCCC2)Cc2cc(OCC(=O)O)c(Cl)c(Cl)c2C1=O [butylindazone] | interrupt the interaction of MGFR with its ligand(s) |  |  |  |
| CNc1ccc2oc(C[C@H]3O[C@@]4(CC[C@H]3C)O[C@H]([C@H](C)C(=O)c3ccc[nH]3)[C@H](C)C[C@H]4C)nc2c1C(=O)O [calcimycin] | interrupt the interaction of MGFR with its ligand(s) |  |  | Direct binding to PSMGFR peptide (co-elution, TLC) (PSMGFR peptide): co-eluted with the PSMGFR peptide |
| ESMGFR: Histidine-tagged Extended Sequence of MUC1 Growth Factor Receptor, SEQ ID NO: 3 (VQLTLAFREGTINVHDVETQFNQYKTEAASPYNLTISDVSVSDVPFPFHHHHHH; “Extended Sequence of the MUC1 Growth Factor Receptor” (ESMGFR)) |  |  | self-aggregated |  |
| His-PSMGFR: Histidine-tagged PSMGFR peptide, SEQ ID NO: 2 (GTINVHDVETQFNQYKTEAASPYNLTISDVSVSDVPFPFSAQSGAHHHHHH; His-PSMGFR peptides) |  |  | completely free of self-aggregation |  |
| PSIBR: Primary Sequence of the Interchain Binding Region; tested histidine-tagged, SEQ ID NO: 4 (GFLGLSNIKFRPGSVVVQLTLAFRE; not fully specified (N-terminus); also: tested histidine-tagged, tag position not given here) |  |  | self-aggregates in a high affinity interaction |  |
| PSMGFR: Primary Sequence of the MUC1 Growth Factor Receptor, SEQ ID NO: 7 (GTINVHDVETQFNQYKTEAASPYNLTISDVSVSDVPFPFSAQSGA; Primary Sequence of the MUC1 Growth Factor Receptor (PSMGFR)) |  |  |  | Cell proliferation after adding peptide to Etomoxir-treated cells (T47D cells [3]; Etomoxir approx. 100 micromolar present): increased cell proliferation |
